Measured values: paper PMC11995724, “Antibiotic target discovery by integrated phenotypic and activity-based profiling of electrophilic fragments” (Cell chemical biology, 2025)

Test: in vitro
Settings: human, hek293t cells

First: C=CC(=O)Nc1cccc(C(F)(F)CF)c1 [2-O12, N-[3-(1,1,2-trifluoroethyl)phenyl]prop-2-enamide]
Second: C=CC(=O)NCC1(c2ccccc2)CC1(F)F (stereo not shown) [2-O20, N-[(2,2-difluoro-1-phenylcyclopropyl)methyl]prop-2-enamide]
The viability at 48 h, 25 µM of the first is lower: 98.8% for the first, 113% for the second.

Going from C=CC(=O)NCC1CCC2(CCCOC2)O1 (stereo not shown) [2-O13, N-({1,7-dioxaspiro[4.5]decan-2-yl}methyl)prop-2-enamide] to C=CC(=O)NCC1CN(Cc2cccc(C)c2)CCO1 (stereo not shown) [3-A05, N-({4-[(3-methylphenyl)methyl]morpholin-2-yl}methyl)prop-2-enamide], the viability at 48 h, 25 µM falls from 168% to 41%.

First: C=CC(=O)Nc1cnc(S(C)(=O)=O)c(C)c1 [2-O14, N-(6-methanesulfonyl-5-methylpyridin-3-yl)prop-2-enamide]
Second: C=CC(=O)NC(C)(C)c1ccc(S(N)(=O)=O)cc1F [2-P17, N-[2-(2-fluoro-4-sulfamoylphenyl)propan-2-yl]prop-2-enamide]
The viability at 48 h, 25 µM of the first is higher: 99.6% for the first, 58.6% for the second.

First: C=CC(=O)N(C)Cc1conc1CC [2-O15, N-[(3-ethyl-1,2-oxazol-4-yl)methyl]-N-methylprop-2-enamide]
Second: C=CC(=O)N(C)c1ccccc1C(=O)NC [2-O18, N-methyl-2-(N-methylprop-2-enamido)benzamide]
The viability at 48 h, 25 µM of the first is higher: 187% for the first, 114% for the second.

Compared with C=CC(=O)N1CCOCC1c1cc(F)cc(F)c1 (stereo not shown) [2-O16, 1-[3-(3,5-difluorophenyl)morpholin-4-yl]prop-2-en-1-one], C=CC(=O)N1CCc2[nH]cnc2C1c1ccnn1C (stereo not shown) [3-A07, 1-[4-(1-methyl-1H-pyrazol-5-yl)-1H,4H,5H,6H,7H-imidazo[4,5-c]pyridin-5-yl]prop-2-en-1-one] is lower in viability at 48 h, 25 µM: 81.8% for the first, 29.2% for the second.

First: C=CC(=O)NCCc1ccnn1C [2-O17, N-[2-(1-methyl-1H-pyrazol-5-yl)ethyl]prop-2-enamide]
Second: C=CC(=O)NCC1(c2ccnn2C)CC1 [2-P15, N-{[1-(1-methyl-1H-pyrazol-5-yl)cyclopropyl]methyl}prop-2-enamide]
The viability at 48 h, 25 µM of the first is higher: 178% for the first, 78.8% for the second.

First: C=CC(=O)N1CCC(CC(C)(C)C)C1 (stereo not shown) [2-O19, 1-[3-(2,2-dimethylpropyl)pyrrolidin-1-yl]prop-2-en-1-one]
Second: C=CC(=O)N1CCC(C(=O)N2CCCCC(SCC)C2)CC1 (stereo not shown) [2-P10, 1-{4-[3-(ethylsulfanyl)azepane-1-carbonyl]piperidin-1-yl}prop-2-en-1-one]
The viability at 48 h, 25 µM of the first is higher: 147% for the first, 108% for the second.

Compared with C=CC(=O)Nc1ccc(C(=O)N2C[C@H](O)C[C@H]2C(=O)OC)cc1 [2-O21, methyl (2S,4R)-4-hydroxy-1-[4-(prop-2-enamido)benzoyl]pyrrolidine-2-carboxylate], C=CC(=O)Nc1cc(NC(=O)[C@@H]2CSCN2C(=O)CC)ccc1F [2-P18, (4R)-N-[4-fluoro-3-(prop-2-enamido)phenyl]-3-propanoyl-1,3-thiazolidine-4-carboxamide] is lower in viability at 48 h, 25 µM: 145% for the first, 91.2% for the second.

Compared with C=CC(=O)NC1CC(=O)N(CC)C1 (stereo not shown) [2-O22, N-(1-ethyl-5-oxopyrrolidin-3-yl)prop-2-enamide], C=CC(=O)NC(C)C1(S(C)(=O)=O)CC1 (stereo not shown) [2-P05, N-[1-(1-methanesulfonylcyclopropyl)ethyl]prop-2-enamide] is lower in viability at 48 h, 25 µM: 91.7% for the first, 84.3% for the second.

First: C=CC(=O)NCCc1ccn(-c2ccc(F)cc2)n1 [2-P03, N-{2-[1-(4-fluorophenyl)-1H-pyrazol-3-yl]ethyl}prop-2-enamide]
Second: C=CC(=O)NCCCn1cnc2ccccc21 [2-P11, N-[3-(1H-1,3-benzodiazol-1-yl)propyl]prop-2-enamide]
The viability at 48 h, 25 µM of the first is higher: 70.4% for the first, 62% for the second.

Going from C=CC(=O)N1CCC(C(=O)N(C)C(C)c2sc(CC)nc2C)CC1 (stereo not shown) [2-P04, N-[1-(2-ethyl-4-methyl-1,3-thiazol-5-yl)ethyl]-N-methyl-1-(prop-2-enoyl)piperidine-4-carboxamide] to C=CC(=O)N1CCC(C(=O)N(C)C2CCCc3c2cnn3C)CC1 (stereo not shown) [2-P12, N-methyl-N-(1-methyl-4,5,6,7-tetrahydro-1H-indazol-4-yl)-1-(prop-2-enoyl)piperidine-4-carboxamide], the viability at 48 h, 25 µM falls from 95.1% to 78.2%.

Going from C=CC(=O)N1CCC(C(=O)N2CCCC(O)C2)(c2ccccc2)CC1 (stereo not shown) [2-P06, 1-[4-(3-hydroxypiperidine-1-carbonyl)-4-phenylpiperidin-1-yl]prop-2-en-1-one] to C=CC(=O)N1CCC(C(=O)NCC(O)c2c(F)cccc2F)CC1 (stereo not shown) [2-P14, N-[2-(2,6-difluorophenyl)-2-hydroxyethyl]-1-(prop-2-enoyl)piperidine-4-carboxamide], the viability at 48 h, 25 µM rises from 93.3% to 102%.

First: C=CC(=O)NCCN1C(=O)COc2ccccc21 [2-P07, N-[2-(3-oxo-3,4-dihydro-2H-1,4-benzoxazin-4-yl)ethyl]prop-2-enamide]
Second: C=CC(=O)NCC(C)(C)c1coc(-c2ccccc2)n1 [3-A03, N-[2-methyl-2-(2-phenyl-1,3-oxazol-4-yl)propyl]prop-2-enamide]
The viability at 48 h, 25 µM of the first is higher: 60.4% for the first, 45.6% for the second.

Going from C=CC(=O)NCc1ccc(C(=O)N2CCC(c3nc(C)no3)C2)cc1 (stereo not shown) [2-P08, N-({4-[3-(3-methyl-1,2,4-oxadiazol-5-yl)pyrrolidine-1-carbonyl]phenyl}methyl)prop-2-enamide] to C=CC(=O)NCc1ccc(S(=O)(=O)NC2CC2)cc1 [2-P19, N-{[4-(cyclopropylsulfamoyl)phenyl]methyl}prop-2-enamide], the viability at 48 h, 25 µM rises from 52.5% to 62.3%.

Going from C=CC(=O)NCC1OCCc2sc(F)cc21 (stereo not shown) [2-P09, N-({2-fluoro-4H,6H,7H-thieno[3,2-c]pyran-4-yl}methyl)prop-2-enamide] to C=CC(=O)NCc1nc(C2CC2)oc1C [2-P13, N-[(2-cyclopropyl-5-methyl-1,3-oxazol-4-yl)methyl]prop-2-enamide], the viability at 48 h, 25 µM falls from 72.3% to 52.6%.

Compared with C=CC(=O)NCCC(=O)N1CCCN(c2cccnn2)CC1 [2-P16, N-{3-oxo-3-[4-(pyridazin-3-yl)-1,4-diazepan-1-yl]propyl}prop-2-enamide], C=CC(=O)N(CC)CC(=O)N1CCC(c2nnc(C)o2)CC1 [3-A08, N-ethyl-N-{2-[4-(5-methyl-1,3,4-oxadiazol-2-yl)piperidin-1-yl]-2-oxoethyl}prop-2-enamide] is lower in viability at 48 h, 25 µM: 77.8% for the first, 66.3% for the second.

Going from C=CC(=O)N1CCC(C(=O)NC2CCc3ncnn3C2)CC1 (stereo not shown) [2-P20, 1-(prop-2-enoyl)-N-{5H,6H,7H,8H-[1,2,4]triazolo[1,5-a]pyridin-6-yl}piperidine-4-carboxamide] to C=CC(=O)N(C)CC(=O)NC1CCC(N2CCCCC2=O)CC1 (stereo not shown) [3-A06, N-methyl-N-({[4-(2-oxopiperidin-1-yl)cyclohexyl]carbamoyl}methyl)prop-2-enamide], the viability at 48 h, 25 µM falls from 98% to 62.1%.

Going from C=CC(=O)NCc1ncc(C)o1 [2-P21, N-[(5-methyl-1,3-oxazol-2-yl)methyl]prop-2-enamide] to C=CC(=O)N(C)CC(=O)N1CCn2cc(C(F)(F)F)nc2C1 [3-A04, N-methyl-N-{2-oxo-2-[2-(trifluoromethyl)-5H,6H,7H,8H-imidazo[1,2-a]pyrazin-7-yl]ethyl}prop-2-enamide], the viability at 48 h, 25 µM rises from 48.8% to 60.6%.

Molecule C=CC(=O)N(C)CC(=O)NC1CCCN(c2ccc(F)cc2F)C1=O (stereo not shown) [2-P22, N-({[1-(2,4-difluorophenyl)-2-oxopiperidin-3-yl]carbamoyl}methyl)-N-methylprop-2-enamide] has a viability at 48 h, 25 µM of 24.4%.
